Experiment: In vitro binding affinity towards 5-hydroxytryptamine 1D receptor beta by using [3H]5-HT as radioligand

CCCNC1CCc2cccc(OS(=O)(=O)C(F)(F)F)c2C1 (stereo unspecified) [Trifluoro-methanesulfonic acid 7-propylamino-5,6,7,8-tetrahydro-naphthalen-1-yl ester]
Ki: 0.169 µM
